Reference: patent US10745382B2 (BRISTOL-MYERS SQUIBB COMPANY, priority 2015, dated 2020)
Like-named read-outs stand apart in the source and are kept apart here.

Biological target: T1, PD-1/PD-L1 (Homo sapiens, UniProt Q9NZQ7)
T1 construct: made in house; host or cells: HEK293T
Assay: PD-1/PD-L1 Homogenous Time-Resolved Fluorescence (HTRF) binding assay
Conditions: PD-L1-His 10 nM, PD-1-Ig 20 nM, read-out: Range or IC50
Outline: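 Binding was measured by HTRF in dPBS with 0.1% BSA and 0.05% Tween-20. Detection used europium cryptate anti-Ig (1 nM final) and APC anti-His (20 nM final) added over the binding reaction.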

T1 sequence (Q9NZQ7 with tags, fused parts or gaps): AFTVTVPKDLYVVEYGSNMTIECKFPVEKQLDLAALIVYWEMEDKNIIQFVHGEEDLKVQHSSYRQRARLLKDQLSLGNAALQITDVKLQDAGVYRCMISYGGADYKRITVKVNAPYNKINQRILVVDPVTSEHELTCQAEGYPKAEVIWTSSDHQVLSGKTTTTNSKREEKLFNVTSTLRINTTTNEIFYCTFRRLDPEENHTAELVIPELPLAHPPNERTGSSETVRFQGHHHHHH

Compound | IC50 (value given as range class) [nM] | IC50 (numeric IC50) [nM]
Cc1c(COc2cc(OCc3cncc(C#N)c3)c(CNC(CO)(CO)CO)cc2Cl)cccc1-c1cccc(OCCCN2CC[C@@H](O)C2)c1C [Example 2285, (R)-5-((4-chloro-2-(((1,3-dihydroxy-2-(hydroxymethyl)propan-2-yl)amino)methyl)-5-((3′-(3-(3-hydroxypyrrolidin-1-yl)propoxy)-2,2′-dimethyl-[1,1′-biphenyl]-3-yl)methoxy)phenoxy)methyl)nicotinonitrile] | 0.21 to 10 | –
Cc1c(COc2cc(OCc3cncc(C#N)c3)c(CN[C@@](C)(CO)C(=O)O)cc2Cl)cccc1-c1cccc(OCCCNC[C@H](O)CO)c1C [Example 2286, (S)-2-((5-chloro-2-((5-cyanopyridin-3-yl)methoxy)-4-((3′-(3-(((S)-2,3-dihydroxypropyl)amino)propoxy)-2,2′-dimethyl-[1,1′-biphenyl]-3-yl)methoxy)benzyl)amino)-3-hydroxy-2-methylpropanoic Acid] | 0.21 to 10 | –
Cc1c(COc2cc(OCc3cncc(C#N)c3)c(CNC(C)(CO)CO)cc2Cl)cccc1-c1cccc(OCCCN2CCCCC2)c1C [Example 2287, 5-((4-chloro-2-(((1,3-dihydroxy-2-methylpropan-2-yl)amino)methyl)-5-((2,2′-dimethyl-3′-(3-(piperidin-1-yl)propoxy)-[1,1′-biphenyl]-3-yl)methoxy)phenoxy)methyl)nicotinonitrile] | 0.21 to 10 | –
Cc1c(COc2cc(OCc3cncc(C#N)c3)c(CNC(C)(CO)CO)cc2Cl)cccc1-c1cccc(OCCCN2CCC(CO)CC2)c1C [Example 2288, 5-((4-chloro-2-(((1,3-dihydroxy-2-methylpropan-2-yl)amino)methyl)-5-((3′-(3-(4-(hydroxymethyl)piperidin-1-yl)propoxy)-2,2′-dimethyl-[1,1′-biphenyl]-3-yl)methoxy)phenoxy)methyl)nicotinonitrile] | 0.21 to 10 | –
Cc1c(COc2cc(OCc3cncc(C#N)c3)c(CNC(C)(CO)CO)cc2Cl)cccc1-c1cccc(OCCCN2CCC[C@@H](CO)C2)c1C [Example 2289, (R)-5-((4-chloro-2-(((1,3-dihydroxy-2-methylpropan-2-yl)amino)methyl)-5-((3′-(3-(3-(hydroxymethyl)piperidin-1-yl)propoxy)-2,2′-dimethyl-[1,1′-biphenyl]-3-yl)methoxy)phenoxy)methyl)nicotinonitrile] | 0.21 to 10 | –
CC(=O)N[C@@H]1CCN(CCCOc2cccc(-c3cccc(COc4cc(OCc5cncc(C#N)c5)c(CNC(C)(CO)CO)cc4Cl)c3C)c2C)C1 [Example 2290, (R)—N-(1-(3-((3′-((2-chloro-5-((5-cyanopyridin-3-yl)methoxy)-4-(((1,3-dihydroxy-2-methylpropan-2-yl)amino)methyl)phenoxy)methyl)-2,2′-dimethyl-[1,1′-biphenyl]-3-yl)oxy)propyl)pyrrolidin-3-yl)acetamide] | 0.21 to 10 | –
Cc1c(COc2cc(OCc3cncc(C#N)c3)c(CNC(CO)CO)cc2Cl)cccc1-c1cccc(OCCCN2CCCCC2)c1C [Example 2291, 5-((4-chloro-2-(((1,3-dihydroxypropan-2-yl)amino)methyl)-5-((2,2′-dimethyl-3′-(3-(piperidin-1-yl)propoxy)-[1,1′-biphenyl]-3-yl)methoxy)phenoxy)methyl)nicotinonitrile] | – | 1.9
Cc1c(COc2cc(OCc3cncc(C#N)c3)c(CNC(CO)CO)cc2Cl)cccc1-c1cccc(OCCCN2CCC[C@@H](CO)C2)c1C [Example 2292, (R)-5-((4-chloro-2-(((1,3-dihydroxypropan-2-yl)amino)methyl)-5-((3′-(3-(3-(hydroxymethyl)piperidin-1-yl)propoxy)-2,2′-dimethyl-[1,1′-biphenyl]-3-yl)methoxy)phenoxy)methyl)nicotinonitrile] | 0.21 to 10 | –
Cc1c(COc2cc(OCc3cncc(C#N)c3)c(CNC(CO)CO)cc2Cl)cccc1-c1cccc(OCCCNC[C@H](O)CO)c1C [Example 2293, (S)-5-((4-chloro-2-(((1,3-dihydroxypropan-2-yl)amino)methyl)-5-((3′-(3-((2,3-dihydroxypropyl)amino)propoxy)-2,2′-dimethyl-[1,1′-biphenyl]-3-yl)methoxy)phenoxy)methyl)nicotinonitrile] | 0.21 to 10 | –
Cc1c(COc2cc(OCc3cncc(C#N)c3)c(CNC(CO)CO)cc2Cl)cccc1-c1cccc(OCCCN2CCC(CO)CC2)c1C [Example 2294, 5-((4-chloro-2-(((1,3-dihydroxypropan-2-yl)amino)methyl)-5-((3′-(3-(4-(hydroxymethyl)piperidin-1-yl)propoxy)-2,2′-dimethyl-[1,1′-biphenyl]-3-yl)methoxy)phenoxy)methyl)nicotinonitrile] | 0.21 to 10 | –
Cc1c(COc2cc(OCc3cncc(C#N)c3)c(CNC(C)(CO)CO)cc2Cl)cccc1-c1cccc(OCCCN2CCC[C@H](CO)C2)c1C [Example 2295, (S)-5-((4-chloro-2-(((1,3-dihydroxy-2-methylpropan-2-yl)amino)methyl)-5-((3′-(3-(3-(hydroxymethyl)piperidin-1-yl)propoxy)-2,2′-dimethyl-[1,1′-biphenyl]-3-yl)methoxy)phenoxy)methyl)nicotinonitrile] | 0.21 to 10 | –
Cc1c(COc2cc(OCc3cncc(C#N)c3)c(CNC(CO)CO)cc2Cl)cccc1-c1cccc(OCCCN2CCC[C@H](CO)C2)c1C [Example 2296, (S)-5-((4-chloro-2-(((1,3-dihydroxypropan-2-yl)amino)methyl)-5-((3′-(3-(3-(hydroxymethyl)piperidin-1-yl)propoxy)-2,2′-dimethyl-[1,12′-biphenyl]-3-yl)methoxy)phenoxy)methyl)nicotinonitrile] | 0.21 to 10 | –
Cc1c(COc2cc(OCc3cncc(C#N)c3)c(CNC(C)(CO)CO)cc2Cl)cccc1-c1cccc(OCCCNC[C@H](O)CO)c1C [Example 2297, (S)-5-((4-chloro-2-(((1,3-dihydroxy-2-methylpropan-2-yl)amino)methyl)-5-((3′-(3-((2,3-dihydroxypropyl)amino)propoxy)-2,2′-dimethyl-[1,1′-biphenyl]-3-yl)methoxy)phenoxy)methyl)nicotinonitrile] | 0.21 to 10 | –
Cc1c(OCCCN2CC[C@H](CO)[C@H](O)C2)cccc1-c1cccc(COc2cc(OCc3cncc(C#N)c3)c(CNC(CO)CO)cc2Cl)c1Cl [Example 2298, 5-((4-chloro-5-((2-chloro-3′-(3-((3S,4R)-3-hydroxy-4-(hydroxymethyl)piperidin-1-yl)propoxy)-2′-methyl-[1,1′-biphenyl]-3-yl)methoxy)-2-(((1,3-dihydroxypropan-2-yl)amino)methyl)phenoxy)methyl)nicotinonitrile] | 0.21 to 10 | –
Cc1c(OCCCNC[C@H](O)CO)cccc1-c1cccc(COc2cc(OCc3cncc(C#N)c3)c(CNC(CO)CO)cc2Cl)c1Cl [Example 2299, (S)-5-((4-chloro-5-((2-chloro-3′-(3-((2,3-dihydroxypropyl)amino)propoxy)-2′-methyl-[1,1′-biphenyl]-3-yl)methoxy)-2-(((1,3-dihydroxypropan-2-yl)amino)methyl)phenoxy)methyl)nicotinonitrile] | 0.21 to 10 | –
Cc1c(OCCCN2CC[C@@H](O)C2)cccc1-c1cccc(COc2cc(OCc3cncc(C#N)c3)c(CNC(CO)CO)cc2Cl)c1Cl [Example 2300, (R)-5-((4-chloro-5-((2-chloro-3′-(3-(3-hydroxypyrrolidin-1-yl)propoxy)-2′-methyl-[1,1′-biphenyl]-3-yl)methoxy)-2-(((1,3-dihydroxypropan-2-yl)amino)methyl)phenoxy)methyl)nicotinonitrile] | – | 1.7
Cc1c(OCCCN2CCCCC2)cccc1-c1cccc(COc2cc(OCc3cncc(C#N)c3)c(CNC(CO)CO)cc2Cl)c1Cl [Example 2301, 5-((4-chloro-5-((2-chloro-2′-methyl-3′-(3-(piperidin-1-yl)propoxy)-[1,1′-biphenyl]-3-yl)methoxy)-2-(((1,3-dihydroxypropan-2-yl)amino)methyl)phenoxy)methyl)nicotinonitrile] | 0.21 to 10 | –
Cc1c(OCCCN2CC[C@@H](O)C2)cccc1-c1cccc(COc2cc(OCc3cncc(C#N)c3)c(CN3CCCC[C@H]3C(=O)O)cc2Cl)c1Cl [Example 2302, (S)-1-(5-chloro-4-((2-chloro-3′-(3-((R)-3-hydroxypyrrolidin-1-yl)propoxy)-2′-methyl-[1,1′-biphenyl]-3-yl)methoxy)-2-((5-cyanopyridin-3-yl)methoxy)benzyl)piperidine-2-carboxylic Acid] | 0.21 to 10 | –
Cc1c(OCCCNC[C@H](O)CO)cccc1-c1cccc(COc2cc(OCc3cncc(C#N)c3)c(CN3CCCC[C@H]3C(=O)O)cc2Cl)c1Cl [Example 2303, (S)-1-(5-chloro-4-((2-chloro-3′-(3-(((S)-2,3-dihydroxypropyl)amino)propoxy)-2′-methyl-[1,1′-biphenyl]-3-yl)methoxy)-2-((5-cyanopyridin-3-yl)methoxy)benzyl)piperidine-2-carboxylic Acid] | 0.21 to 10 | –
Cc1c(OCCCN2CC[C@H](O)C2)cccc1-c1cccc(COc2cc(OCc3cncc(C#N)c3)c(CN3CCCC[C@H]3C(=O)O)cc2Cl)c1Cl [Example 2304, (S)-1-(5-chloro-4-((2-chloro-3′-(3-((S)-3-hydroxypyrrolidin-1-yl)propoxy)-2′-methyl-[1,1′-biphenyl]-3-yl)methoxy)-2-((5-cyanopyridin-3-yl)methoxy)benzyl)piperidine-2-carboxylic Acid] | 0.21 to 10 | –
Cc1c(OCCCN2CC[C@@H](O)C2)cccc1-c1cccc(COc2cc(OCc3cncc(C#N)c3)c(CNC(C)(CO)CO)cc2Cl)c1Cl [Example 2305, (R)-5-((4-chloro-5-((2-chloro-3′-(3-(3-hydroxypyrrolidin-1-yl)propoxy)-2′-methyl-[1,1′-biphenyl]-3-yl)methoxy)-2-(((1,3-dihydroxy-2-methylpropan-2-yl)amino)methyl)phenoxy)methyl)nicotinonitrile] | 0.21 to 10 | –
